# Assay results published in article PMC10294832, “Investigation of Naphthyl–Polyamine Conjugates as Antimicrobials and Antibiotic Enhancers” (Antibiotics, 2023).
# “And” between values parts separate entries of the source, which are not always exact repeats. Identical values can stand only once.
# How the values were obtained:
# E. coli = test system: E. coli; parameters: method as in PMID 15225864; conditions: novobiocin and erythromycin; weak effect; cited from earlier work
# [1] = test system: A. baumannii (ATCC 19606); assay: Antimicrobial MIC, A. baumannii; assay type: cell-based, Acinetobacter baumannii; conditions: Acinetobacter baumannii, ATCC19606, A. baumannii (ATCC 19606); mean (n = 2)
# human red blood cells = assay: Hemolytic assay; assay type: cell-based; conditions: concentration at 10% hemolytic activity on human red blood cells; mean (n = 2)
# Method: Hemolysis assays were conducted using the protocols previously reported.
# S. aureus (ATCC 25923) [2] = assay: Minimum bactericidal concentration test; assay type: cell-based; conditions: Staphylococcus aureus, ATCC25923, same value as MIC
# Method: (§1) To conduct a detailed analysis of the antibacterial activity and initial assessment of the mechanism of action, analogue 20f was selected due to its strong antibacterial properties, and because it was devoid of any observed cytotoxic or hemolytic effects. To evaluate the kinetics of antibacterial activity, real-time growth inhibition curves were measured for two Gram-positive bacteria (S. aureus (ATCC 25923), MRSA (CF-Marseille)) and the Gram-negative bacterium E. coli (ATCC 25922). […] These values corresponded to the inhibitory concentrations observed at the 18-hour mark in the real-time growth inhibition curve plots.
# (§2) MBC’s were determined following previously reported protocols.
# E. coli (ATCC 25922) [3] = assay: Minimum bactericidal concentration test; assay type: cell-based; conditions: Escherichia coli, ATCC25922, same value as MIC
# Method: as §1, §2
# [4] = test system: P. aeruginosa (ATCC 27853); assay: Enhancement of doxycycline activity; assay type: cell-based, Pseudomonas aeruginosa; conditions: for Dox/P.a: concentration required to restore doxycycline activity (combination MIC): doxycycline fixed at 4.5 µM (2 µg/mL); for Dox/P.a: concentration required to restore doxycycline activity (combination MIC) / Concentration of test compound required to restore doxycycline activity: P. aeruginosa (ATCC 27853); for Dox/P.a fold change: ratio between intrinsic MIC of test compound and combination MIC, doxycycline 4.5 µM, P. aeruginosa
# MRSA (ATCC 43300) [5] = assay: Antimicrobial MIC, MRSA; assay type: cell-based, methicillin-resistant Staphylococcus aureus; conditions: Staphylococcus aureus, MRSA (ATCC 43300); mean (n = 2); read-out: MIC MRSA
# [6] = test system: C. neoformans (ATCC 208821); assay: Antifungal MIC, C. neoformans; assay type: cell-based, Cryptococcus neoformans; conditions: Cryptococcus neoformans, ATCC208821, C. neoformans (ATCC 208821); mean (n = 2)
# Procedure, shortened: (§3)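 Antifungal values reflect testing at The University of Queensland's open antimicrobial discovery facility by its standard protocols. Antibacterial MICs were measured in-house, alongside reference antibiotics, by a published method.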
# Cytotoxicity assay = assay type: cell-based, human; conditions: human, HEK293 human embryonic kidney cells, concentration at 50% cytotoxicity on HEK293 cells; mean (n = 2)
# Method: (§4) Cytotoxicity assays were conducted using the protocols previously reported.
# MRSA (CF-Marseille) [7] = assay: Real-time growth inhibition curves / MIC; assay type: cell-based, methicillin-resistant Staphylococcus aureus; conditions: Staphylococcus aureus, 18-hour mark of real-time growth curve
# Method: as §1
# (§5) Solutions of compound 20f at concentrations of 2, 4, and 16 µg/mL were each tested in triplicate against S. aureus (ATCC 25923), MRSA (CF-Marseille), and E. coli (ATCC 25922) following previously reported protocols.
# MRSA (CF-Marseille) [8] = assay: Minimum bactericidal concentration test; assay type: cell-based, methicillin-resistant Staphylococcus aureus; conditions: Staphylococcus aureus, same value as MIC
# Method: as §1, §2
# E. coli (ATCC 25922) [9] = assay: Enhancement of erythromycin activity; assay type: cell-based, Escherichia coli; conditions: for Eryth/E.c: concentration required to restore erythromycin activity (combination MIC): erythromycin fixed at 10.9 µM (8 µg/mL), E. coli (ATCC 25922); for Eryth/E.c fold change: ratio between intrinsic MIC of test compound and combination MIC, erythromycin 10.9 µM, E. coli
# Method: Restoring enhancer concentrations were determined using previously reported protocols.
# [10] = test system: K. pneumoniae (ATCC 700603); assay: Antimicrobial MIC, K. pneumoniae; assay type: cell-based; conditions: Klebsiella pneumoniae, ATCC700603, mean (n = 2)
# [11] = test system: S. aureus (ATCC 25,923 or ATCC 29213); assay: Antimicrobial MIC, S. aureus; assay type: cell-based, Staphylococcus aureus; conditions: Staphylococcus aureus, mean (n = 3)
# Procedure, shortened: as §3
# C. albicans (ATCC 90028) = assay: Antifungal MIC, C. albicans; assay type: cell-based; conditions: Candida albicans, ATCC90028, mean (n = 2)
# Procedure, shortened: as §3
# S. aureus (ATCC 25923) [12] = assay: Real-time growth inhibition curves / MIC; assay type: cell-based; conditions: Staphylococcus aureus, ATCC25923, 18-hour mark of real-time growth curve
# Method: as §1, §5
# E. coli (ATCC 25922) [13] = assay: Real-time growth inhibition curves / MIC; assay type: cell-based; conditions: Escherichia coli, ATCC25922, 18-hour mark of real-time growth curve
# Method: as §1, §5
# E. coli (ATCC 25922) [14] = assay: Antimicrobial MIC, E. coli; assay type: cell-based, Escherichia coli; conditions: mean (n = 2)
# Procedure, shortened: as §3
# [15] = test system: P. aeruginosa (PAO1 or ATCC 27853); assay: Antimicrobial MIC, P. aeruginosa; assay type: cell-based; conditions: Pseudomonas aeruginosa; P. aeruginosa (PAO1 or ATCC 27853); mean (n = 3); read-out: MIC P. a
# Procedure, shortened: as §3
# E. coli (ATCC 25922) [16] = test system: E. coli (ATCC 25922); parameters: method as in PMID 36982955; conditions: earlier work; cited from earlier work
# MRSA (ATCC 43300) [17] = test system: MRSA (ATCC 43300); parameters: method as in PMID 36982955; conditions: earlier work; cited from earlier work
# [18] = test system: S. aureus (ATCC 25,923 or ATCC 29213); parameters: method as in PMID 36982955; conditions: earlier work; cited from earlier work
# [19] = test system: P. aeruginosa (ATCC 27853); parameters: method as in PMID 36982955; conditions: earlier work; cited from earlier work
# [20] = test system: HEK293 human embryonic kidney cells; assay: Cytotoxicity assay; assay type: cell-based; conditions: concentration at 50% cytotoxicity on HEK293 cells; mean (n = 2)
# Method: as §4
# [21] = Escherichia coli, ATCC25922, E. coli (ATCC 25922)
SMILES,MIC [1],Dox/P.a: concentration required to restore doxycycline activity (combination MIC) [4],MIC (MRSA (ATCC 43300) [5]),MIC [6],Eryth/E.c: concentration required to restore erythromycin activity (combination MIC) (E. coli (ATCC 25922) [9]),MIC [10],MIC [11],MIC (C. albicans (ATCC 90028)),MIC (E. coli (ATCC 25922) [14]; [21]),MIC [15],melting point,Hemolysis HC10 (human red blood cells),Dox/P.a fold change [4],IC50 (Cytotoxicity assay),Eryth/E.c fold change (E. coli (ATCC 25922) [9]),MIC Escherichia coli (E. coli (ATCC 25922) [16]),MIC MRSA (MRSA (ATCC 43300) [17]),MIC Staphylococcus aureus [18],further results
"NCCCNCCCCNCCCNC(=O)Cc1cccc2ccccc12 [Compound 22, naphthylacetylspermine]",–,–,–,–,–,–,–,–,–,–,–,–,–,–,–,–,–,–,doses rendering E. coli sensitive to hydrophobic antibiotics (E. coli): 64 to 128 µg/mL
O=C(CC(c1ccccc1)(c1ccccc1)c1ccccc1)NCCCNCCCCCCCCNCCCNC(=O)CC(c1ccccc1)(c1ccccc1)c1ccccc1 [Compound 7],–,–,–,–,–,–,–,–,–,–,–,–,–,–,–,7.6 µM,≤ 0.24 µM,3.13 µM,–
O=C(CC(c1ccccc1)c1ccccc1)NCCCNCCCCCCCCNCCCNC(=O)CC(c1ccccc1)c1ccccc1 [Compound 6],–,–,–,–,–,–,–,–,–,–,–,–,–,–,–,2.2 µM,≤ 0.28 µM,3.13 µM,"MIC in combination, doxycycline vs. P. aeruginosa [19]: 12.5 µM; fold increase, doxycycline vs. P. aeruginosa [19]: 4 fold"

# The next lines start with results.
MIC [1],Dox/P.a: concentration required to restore doxycycline activity (combination MIC) [4],MIC (MRSA (ATCC 43300) [5]),MIC [6],Eryth/E.c: concentration required to restore erythromycin activity (combination MIC) (E. coli (ATCC 25922) [9]),MIC [10],MIC [11],MIC (C. albicans (ATCC 90028)),MIC (E. coli (ATCC 25922) [14]; [21]),MIC [15],melting point,SMILES,Hemolysis HC10 (human red blood cells),Dox/P.a fold change [4],IC50 (Cytotoxicity assay),Eryth/E.c fold change (E. coli (ATCC 25922) [9]),MIC Escherichia coli (E. coli (ATCC 25922) [16]),MIC MRSA (MRSA (ATCC 43300) [17]),MIC Staphylococcus aureus [18],further results
> 32 µM,12.6 µM,≤ 0.25 µM,≤ 0.25 µM,3.15 µM,> 32 µM,3.12 µM,> 32 µM,6.3 to 12.5 µM,> 100 µM,–,"O=C(CCC(=O)Nc1ccc2ccccc2c1)NCCCNCCCCCCCCCCCCNCCCNC(=O)CCC(=O)Nc1ccc2ccccc2c1.O=C(O)C(F)(F)F.O=C(O)C(F)(F)F [Compound 20f, N^1,N^12-Bis(3-(4-(naphthalen-2-ylamino)-4-oxobutanamido)propyl)dodecane-1,12-diaminium 2,2,2-trifluoroacetate]",>32.2 µM,> 8 fold,> 32.2 µM,2 fold,–,–,–,MBC (S. aureus (ATCC 25923) [2]): 3.15 µM and 3.13 µg/mL; MBC (E. coli (ATCC 25922) [3]): 6.29 µM and 6.25 µg/mL; MIC (MRSA (CF-Marseille) [7]): 3.15 µM and 3.13 µg/mL; MBC (MRSA (CF-Marseille) [8]): 3.13 µg/mL and 3.15 µM; MIC (S. aureus (ATCC 25923) [12]): 3.15 µM and 3.13 µg/mL; MIC (E. coli (ATCC 25922) [13]): 6.29 µM and 6.25 µg/mL; MIC (E. coli (ATCC 25922) [14]; E. coli (ATCC 25922)): 6.3 µM
> 32.8 µM,300 µM,0.256 µM,> 32.8 µM,300 µM,> 32.8 µM,200 µM,> 32.8 µM,300 µM,300 µM,178 to 180 °C,"O=C(CCC(=O)Nc1ccc(-c2ccccc2)cc1)NCCCNCCCCCCCNCCCNC(=O)CCC(=O)Nc1ccc(-c2ccccc2)cc1.O=C(O)C(F)(F)F.O=C(O)C(F)(F)F [Compound 21c, N^1,N^7-Bis(3-(4-([1,1’-biphenyl]-4-ylamino)-4-oxobutanamido)propyl)heptane-1,7-diaminium 2,2,2-trifluoroacetate]",>32.8 µM,1 fold,> 32.8 µM,1 fold,–,–,–,–
> 43.3 µM,16.9 µM,43.3 µM,21.7 µM,4.2 µM,> 43.3 µM,34 µM,> 43.3 µM,271 µM,677 µM,132 to 135 °C,"O=C(NCCCNCCCCNCCCNC(=O)c1ccc2ccccc2c1)c1ccc2ccccc2c1.O=C(O)C(F)(F)F.O=C(O)C(F)(F)F [Compound 19a, N^1,N^4-Bis(3-(2-naphthamido)propyl)butane-1,4-diaminium 2,2,2-trifluoroacetate]",>43.3 µM,–,26 µM,64 fold,–,–,–,Concentration of test compound required to restore doxycycline activity ([4]; doxycycline concentration 2 µg/mL): 16.9 µM; Concentration of test compound required to restore doxycycline activity ([4]; doxycycline concentration 4 µg/mL): 8.5 µM; Concentration of test compound required to restore doxycycline activity ([4]; doxycycline concentration 6 µg/mL): 8.5 µM; Concentration of test compound required to restore doxycycline activity ([4]; doxycycline concentration 8 µg/mL): 4.2 µM; IC50 [20]: 26.4 µM
